Here are results for nine molecules from patent publication US7071376B2, “Genes encoding p-coumarate 3-hydroxylase (C3H) and methods of use” (Purdue Research Foundation, priority 2000, dated 2006).

Data set [1] addresses T1, C3H polypeptide (CYP98A3) (Arabidopsis thaliana, UniProt O22203).
T1 sequence (O22203 1-508): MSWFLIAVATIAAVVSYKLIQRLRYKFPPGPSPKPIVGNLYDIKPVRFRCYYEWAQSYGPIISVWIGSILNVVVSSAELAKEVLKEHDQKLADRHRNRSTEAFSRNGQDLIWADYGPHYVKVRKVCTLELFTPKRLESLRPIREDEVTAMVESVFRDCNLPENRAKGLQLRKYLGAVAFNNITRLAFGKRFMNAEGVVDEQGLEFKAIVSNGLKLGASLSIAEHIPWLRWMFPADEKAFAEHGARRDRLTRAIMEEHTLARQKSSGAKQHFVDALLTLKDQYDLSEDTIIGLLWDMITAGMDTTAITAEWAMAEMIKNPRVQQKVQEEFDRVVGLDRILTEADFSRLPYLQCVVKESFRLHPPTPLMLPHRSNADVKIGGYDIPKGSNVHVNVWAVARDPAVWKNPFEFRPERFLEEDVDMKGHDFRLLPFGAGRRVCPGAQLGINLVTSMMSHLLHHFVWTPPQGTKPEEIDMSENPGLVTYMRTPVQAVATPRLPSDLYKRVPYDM
Briefly: in vitro C3H assay with microsomes from yeast expressing CYP98A3. How it is done:
For C3H assays, an NADPH regenerating system consisting of 1 mM NADP^+, 10 mM glucose-6-phosphate, and 1 unit glucose-6-phosphate dehydrogenase was pre-incubated at 30 C for 5 min to permit the generation of NADPH in the presence of one of the putative C3H substrates in a final volume of 400 μL of assay buffer. Assays were initiated by the addition of 100 μL of microsomes and were allowed to incubate for 60 min at 30C before being terminated by boiling. Assays were clarified by centrifugation for 20 min at 13,000 ×g, and were analyzed directly by HPLC on a Microsorb-MV C-18 column (Rainin, Woburn Mass.) using a gradient of solvent A (1.0% acetic acid in water) and solvent B (acetonitrile; 0 to 10% B in 5 min, 10 to 25% B in 25 min; flow rate 1 mL min^−1). C3H reaction products were quantified using UV detection (caffeic acid, 322 nm; caffeyl aldehyde, 340 nm; caffeic acid methyl ester, 324 nm). Assays conducted using microsomes isolated from yeast transformed with pYeDP60 served as negative controls. The apparent Km for p-coumarate methyl ester was determined using triplicate assays analyzed by the Eadie-Hofstee method(Cornish-Bowden, 1995).
To experimentally address these issues, C3H-containing microsomes were prepared for use in in vitro assays of enzymatic activity.

Data set [2] has as its target T2, F5H (Arabidopsis thaliana, UniProt Q42600).
T2 construct: host or cells: yeast
T2 sequence (Q42600 1-520): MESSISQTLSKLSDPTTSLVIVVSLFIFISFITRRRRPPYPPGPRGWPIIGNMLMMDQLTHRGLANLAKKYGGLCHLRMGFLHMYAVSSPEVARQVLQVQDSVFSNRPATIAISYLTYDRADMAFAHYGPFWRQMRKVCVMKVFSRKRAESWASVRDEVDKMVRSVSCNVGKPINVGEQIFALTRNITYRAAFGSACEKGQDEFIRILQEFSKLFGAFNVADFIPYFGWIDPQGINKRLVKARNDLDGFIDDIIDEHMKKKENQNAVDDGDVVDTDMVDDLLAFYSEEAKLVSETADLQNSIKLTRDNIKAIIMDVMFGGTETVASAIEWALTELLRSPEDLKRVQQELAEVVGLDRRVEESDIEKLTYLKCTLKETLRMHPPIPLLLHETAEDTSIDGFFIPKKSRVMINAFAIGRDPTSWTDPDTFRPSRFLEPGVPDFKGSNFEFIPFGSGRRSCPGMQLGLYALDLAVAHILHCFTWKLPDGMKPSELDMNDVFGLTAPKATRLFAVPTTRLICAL
As to conditions: cited from earlier work.

Data set [3] deals with T1, C3H polypeptide (CYP98A3).
Experimental: WAT11 cells were transformed with pYeDP60, pYeDP60-REF8, and pYeDP60-ref8 (Gietz et al., 1992), cultured and then induced with galactose as described previously (Urban et al., 1994). For in vivo measurements of enzyme activity, cells were grown in media supplemented with 5 mM p-coumaric acid. At the end of the incubation period the medium was extracted with ethylacetate, and analyzed by HPLC as described above.
Finally, WAT11 yeast carrying the control vector and the YeDP60-REF8 vector were assayed for C3H polypeptide activity in vivo by adding p-coumarate directly to the medium of galactose-induced yeast cultures.
[4] abbreviates: yeast microsomes, NADPH regenerating system, 60 min, 30 C, HPLC.

Where two headings read alike, the source gives them in different places.

In the case of `O=C(/C=C/c1ccc(O)cc1)O[C@@H]1O[C@H](CO)[C@@H](O)[C@H](O)[C@H]1O` [1-O-p-coumaroyl—D-glucose], in data set [1] (setting [4]), the “activity of C3H toward substrate” value is “no activity”.

As to `COc1cc(/C=C/C=O)ccc1O` [coniferaldehyde], the Vmax in data set [2] (substrate of F5H) is 5 pKat mg^−1. For the same molecule, the Km (usually the substrate concentration at which the rate is half of its maximum) in data set [2] (substrate of F5H, read-out: Km) was 1 µM.

With `COc1cc(/C=C/CO)ccc1O` [coniferyl alcohol], the Vmax in data set [2] (substrate of F5H) is given as 6 pKat mg^−1. The Km in data set [2] (substrate of F5H, read-out: Km) is 3 µM.

Regarding `COc1cc(/C=C/C(=O)O)ccc1O` [ferulate], the Km in data set [2] (ferulate hydroxylation by F5H) is 1000 µM. Moreover, the “activity of C3H toward substrate” value in data set [1] (setting [4]) is “No activity”.

For the molecule `O=C/C=C/c1ccc(O)cc1` [p-coumaraldehyde], the “activity of C3H toward substrate” value in data set [1] (setting [4]) is given as “Levels of activity comparable to those seen with p-coumarate”.

Take `O=C(O)/C=C/c1ccc(O)cc1` [p-coumarate]: the “hydroxylation of substrate added to yeast medium (product caffeic acid)” value in data set [3] was “capable of hydroxylating”. Also, the “activity of C3H toward substrate” value in data set [1] was “so low that it precluded detailed kinetic analysis”.

Consider `CC(C)(COP(=O)(O)OP(=O)(O)OC[C@H]1O[C@@H](n2cnc3c(N)ncnc32)[C@H](O)[C@@H]1OP(=O)(O)O)[C@@H](O)C(=O)NCCC(=O)NCCSC(=O)/C=C/c1ccc(O)cc1` [p-coumaroyl CoA], for which the “activity of C3H toward substrate” value in data set [1] (setting [4]) is “no activity”.

As to `COC(=O)/C=C/c1ccc(O)cc1` [p-coumaroyl methyl ester], the “activity of C3H toward substrate” value in data set [1] is given as “much higher levels of activity”. For the same molecule, the Km in data set [1] (read-out: apparent Km, substrate of C3H, yeast microsomes, triplicate assays, Eadie-Hofstee method) was 2500 ± 100 µM.

As for `OCC=Cc1ccc(O)cc1` [p-hydroxycinnamyl alcohol], the “activity of C3H toward substrate” value in data set [1] (setting [4]) was “no activity”.
